Structures can show the parent of a compound that is named as a salt.

The first assay relates to HMOX1. Nature of the assay: HMOX1 Protein Assay (immunostaining of HO-1 in NHLF cells, GE InCell 1000). Particulars: Homo sapiens, fold change above DMSO treated cells, 3 μM compound (asterisk), 16 h. The class given is cell-based. In a few lines: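 NHLF cells seeded overnight in FGM-2, then exposed to compound or DMSO vehicle for 16 h, fixed, and immunostained for HO-1 with Hoechst nuclear counterstain; imaged on InCell 1000. Values are fold change over DMSO-treated cells, generally at 5 μM (0.8% DMSO), with asterisked entries at 3 μM.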
In turn, `CN1CCN(CCNC(=O)c2ccc3c(c2)nc(Nc2nc4ccc(Cl)cc4s2)n3C)CC1` [Example 338, 2-(6-Chloro-benzothiazol-2-ylamino)-1-methyl-1H-benzoimidazole-5-carboxylic acid [2-(4-methyl-piperazin-1-yl)-ethyl]-amide] returned a fold induction at 3 µM of 13.6.

Still in this assay, the particulars now being: Homo sapiens, fold change above DMSO treated cells, 5 μM compound, 16 h.
In turn, `CN(C(=O)CNC(=O)c1ccc2c(c1)nc(Nc1nc3ccc(Cl)cc3s1)n2C)C1CCNC1` (stereo not drawn) [Example 394, 2-(6-Chloro-benzothiazol-2-ylamino)-1-methyl-1H-benzoimidazole-5-carboxylic acid [(methyl-pyrrolidin-3-yl-carbamoyl)-methyl]-amide hydrochloride] yielded a fold induction at 5 µM of 37.6.

With `Cn1c(Nc2nc3ccc(Cl)cc3s2)nc2cc(C(=O)NCCCO)ccc21` [Example 214, 2-(6-Chloro-benzothiazol-2-ylamino)-1-methyl-1H-benzoimidazole-5-carboxylic acid (3-hydroxy-propyl)-amide], the fold induction at 5 µM was determined as 42.4. Regarding `CCN(CC)c1cc2c(cc1C(=O)NCC(=O)N(C)C)nc(Nc1nc3ccc(OC(F)(F)F)cc3s1)n2C` [Example 361, 6-Diethylamino-1-methyl-2-(6-trifluoromethoxy-benzothiazol-2-ylamino)-1H-benzoimidazole-5-carboxylic acid dimethylcarbamoylmethyl-amide], the fold induction at 5 µM worked out at 28.8. The same measure, in the same setting: the result for `COCCn1c(Nc2nc3ccc(Cl)cc3s2)nc2cc(C(=O)NCC(=O)N3CCN(C)CC3)ccc21` [Example 428, 2-(6-Chloro-benzothiazol-2-ylamino)-1-(2-methoxy-ethyl)-1H-benzoimidazole-5-carboxylic acid [2-(4-methyl-piperazin-1-yl)-2-oxo-ethyl]-amide] reads 24.4; that for `Cn1c(Nc2nc3ccc(Cl)cc3s2)nc2cc(C(=O)N[C@H]3CCNC3)ccc21` [Example 291, 2-(6-Chloro-benzothiazol-2-ylamino)-1-methyl-1H-benzoimidazole-5-carboxylic acid (S)-pyrrolidin-3-ylamide hydrochloride], 17.

On to `Cn1c(Nc2nc3ccc(OC(F)(F)F)cc3s2)nc2cc(C(=O)NCC3CNCCO3)ccc21` (stereo not drawn) [Example 56, 1-Methyl-2-(6-trifluoromethoxy-benzothiazol-2-ylamino)-1H-benzoimidazole-5-carboxylic acid (morpholin-2-ylmethyl)-amide hydrochloride], for which the fold induction at 5 µM came to 16.1. On the same count and under the same terms, under `COC(=O)c1ccc2c(c1)nc(Nc1nc3ccc(OC(F)(F)F)cc3s1)n2C(C)C` [Example 158, 1-Isopropyl-2-(6-trifluoromethoxy-benzothiazol-2-ylamino)-1H-benzoimidazole-5-carboxylic acid methyl ester] stands 1.7; under `Cn1c(Nc2nc3ccc(C(F)(F)F)cc3s2)nc2cc(C(=O)NCCO)ccc21` [Example 27, 1-Methyl-2-(6-trifluoromethyl-benzothiazol-2-ylamino)-1H-benzoimidazole-5-carboxylic acid (2-hydroxy-ethyl)-amide], 23.2; under `Cn1c(Nc2nc3ccc(OC(F)(F)F)cc3s2)nc2cc(C(=O)NCCOCC(F)F)ccc21` [Example 258, 1-Methyl-2-(6-trifluoromethoxy-benzothiazol-2-ylamino)-1H-benzoimidazole-5-carboxylic acid [2-(2,2-difluoro-ethoxy)-ethyl]-amide], 24.6.

The molecule `CC(C)Cn1c(Nc2nc3ccc(OC(F)(F)F)cc3s2)nc2cc(C(=O)O)ccc21` [Example 163, 1-Isobutyl-2-(6-trifluoromethoxy-benzothiazol-2-ylamino)-1H-benzoimidazole-5-carboxylic acid] yielded a fold induction at 5 µM of 26.3. The same measure, in the same setting: under `Cn1c(Nc2nc3ccc(OC(F)(F)F)cc3s2)nc2cc(C(=O)NCCNC(=O)CO)ccc21` [Example 325, 1-Methyl-2-(6-trifluoromethoxy-benzothiazol-2-ylamino)-1H-benzoimidazole-5-carboxylic acid [2-(2-hydroxy-acetylamino)-ethyl]-amide] stands 32.4.

`Cn1c(Nc2nc3ccc(OC(F)(F)F)cc3s2)nc2cc(-c3ncc[nH]3)ccc21` [Example 196, [5-(1H-Imidazol-2-yl)-1-methyl-1H-benzimidazol-2-yl]-(6-trifluoromethoxy-benzothiazol-2-yl)-amine] came in with a fold induction at 5 µM of 11.4. On the same count and under the same terms, the result for `Cn1c(Nc2nc3ccc(OC(F)(F)F)cc3s2)nc2cc(C(=O)NCCCC(C)(C)CO)ccc21` [Example 229, 1-Methyl-2-(6-trifluoromethoxy-benzothiazol-2-ylamino)-1H-benzoimidazole-5-carboxylic acid (5-hydroxy-4,4-dimethyl-pentyl)-amide] reads 14.4. Same read-out and setting: the result for `COc1ccc(CNC(=O)c2ccc3c(c2)nc(Nc2nc4ccc(OC(F)(F)F)cc4s2)n3C)cc1O` [Example 231, 1-Methyl-2-(6-trifluoromethoxy-benzothiazol-2-ylamino)-1H-benzoimidazole-5-carboxylic acid 3-hydroxy-4-methoxy-benzylamide] reads 30.2; that for `CN(C)[C@H]1CCN(C(=O)CNC(=O)c2ccc3c(c2)nc(Nc2nc4ccc(OC(F)(F)F)cc4s2)n3C)C1` [Example 416, 1-Methyl-2-(6-trifluoromethoxy-benzothiazol-2-ylamino)-1H-benzoimidazole-5-carboxylic acid [2-((S)-3-dimethylamino-pyrrolidin-1-yl)-2-oxo-ethyl]-amide], 96.6. Same read-out and setting: under `Cn1c(Nc2nc3ccc(OC(F)(F)F)cc3s2)nc2cc(C(=O)N[C@@H]3C[C@H](CO)[C@@H](O)[C@H]3O)ccc21` [Example 282, 1-Methyl-2-(6-trifluoromethoxy-benzothiazol-2-ylamino)-1H-benzoimidazole-5-carboxylic acid ((1R,2S,3R,4R)-2,3-dihydroxy-4-hydroxymethyl-cyclopentyl)-amide] stands 51.7; under `CNC(=O)c1ccc2c(c1)nc(Nc1nc3ccc(OC(F)(F)F)cc3s1)n2CCN` [Example 173, 1-(2-Amino-ethyl)-2-(6-trifluoromethoxy-benzothiazol-2-ylamino)-1H-benzoimidazole-5-carboxylic acid methylamide hydrochloride], 21.4; under `COCCNC(=O)c1ccc2c(c1)nc(Nc1nc3ccc(OC(F)(F)F)cc3s1)n2C` [Example 8, 1-Methyl-2-(6-trifluoromethoxy-benzothiazol-2-ylamino)-1H-benzoimidazole-5-carboxylic acid (2-methoxy-ethyl)-amide], 18.3. Regarding `CN(C)CC(=O)NCCNC(=O)c1ccc2c(c1)nc(Nc1nc3ccc(Cl)cc3s1)n2C` [Example 324, 2-(6-Chloro-benzothiazol-2-ylamino)-1-methyl-1H-benzoimidazole-5-carboxylic acid [2-(2-dimethylamino-acetylamino)-ethyl]-amide], the fold induction at 5 µM came to 27.9.

For `CNC(=O)c1ccc2c(c1)nc(Nc1nc3cc(F)c(F)cc3s1)n2C` [Example 86, 2-(5,6-Difluoro-benzothiazol-2-ylamino)-1-methyl-1H-benzoimidazole-5-carboxylic acid methylamide], the fold induction at 5 µM turned out to be 9.7.

What is called fold induction is the ratio of treated to control signal. A low value points to a weak induction.

The values above are taken from US8759535B2, “Substituted fused imidazole derivatives, pharmaceutical compositions, and methods of use thereof” (High Point Pharmaceuticals, LLC, priority 2010, dated 2014).
